Activity calls are given as the source filed them. The calls are words filed in the database; no cut-off is given here.
Columns and labels:
[1] = molecular target: Alpha-synuclein (Homo sapiens) (UniProt P37840); experiment: Inhibition of human alpha-synuclein aggregation expressed in transgenic Caenorhabditis elegans NL5901 assessed as decrease in alpha-synuclein expression at 1% after 48 hrs by fluorescence microscopy analysis
[2] = molecular target: Alpha-synuclein (Homo sapiens) (UniProt P37840); experiment: Inhibition of human alpha-synuclein aggregation expressed in transgenic Caenorhabditis elegans NL5901 by measuring fluorescence intensity at 1% incubated for 48 hrs by fluorescence microscopy analysis relative to control

Row | SMILES | inhibition [1] | inhibition [2] | fold change (FC) [2]
1 | CCOC(=O)c1cnc2c(cnn2-c2ccccc2)c1N1CCCCC1 | Active | 47.7% | 1.5
2 | CCOC(=O)c1cnc2c(cnn2-c2cccc(C(F)(F)F)c2)c1N1CCN(c2ncccc2C#N)CC1 | Active | 27.3% | –
3 | CCOC(=O)c1cnc2c(cnn2-c2ccccc2F)c1N1CCN(c2ncccc2C#N)CC1 | Active | 26.1% | –
4 | CCOC(=O)c1cnc2c(cnn2-c2ccccc2)c1N1CCN(c2cc(C)nc3ncnn23)CC1 | Active | 31.9% | –
5 | CCOC(=O)c1cnc2c(cnn2-c2ccccc2)c1N1CCN(c2cc(C(F)(F)F)nc3ncnn23)CC1 | Active | 14.1% | –
6 | CCOC(=O)c1cnc2c(cnn2-c2ccc(F)c(F)c2)c1N1CCN(c2ncccc2C#N)CC1 | Active | 13.5% | –
7 | CCOC(=O)c1cnc2c(cnn2-c2ccccc2)c1Oc1cccc2cccnc12 | Active | 24.4% | –

Second part, the molecule after the results:

Row | inhibition [1] | inhibition [2] | fold change (FC) [2] | SMILES
8 | Active | 33.1% | – | CCOC(=O)c1cnc2c(cnn2-c2ccccc2)c1N1CCN(c2ncccc2C#N)CC1
9 | Active | 17.7% | – | CCOC(=O)c1cnc2c(cnn2-c2ccccc2)c1N1CCN(S(=O)(=O)c2ccc(NC(C)=O)cc2)CC1
10 | Active | 30.2% | – | CCOC(=O)c1cnc2c(cnn2-c2ccccc2)c1N1CCOCC1
11 | Active | 14.7% | – | CCOC(=O)c1cnc2c(cnn2-c2ccccc2)c1N1CCN(c2cc(=O)[nH]c3ccccc23)CC1
12 | Active | 53% | 2.4 | CCOC(=O)c1cnc2c(cnn2-c2ccccc2)c1N1CCN(C)CC1
13 | Active | 39.2% | 1.7 | CCOC(=O)c1cnc2c(cnn2-c2ccccc2)c1N1CCN(c2ccnc3cc(Cl)ccc23)CC1

Reference: ChEMBL document CHEMBL4725335, “Deciphering the robustness of pyrazolo-pyridine carboxylate core structure-based compounds for inhibiting α-synuclein in transgenic C. elegans model of Synucleinopathy” (Bioorg Med Chem, 2020)
